In doi:10.1101/2022.04.05.487101v2 (biorxiv, 2022):

Target: SOX2 (Homo sapiens, UniProt P48431)
Assay: competitive EMSA
Type: binding
Details: 300 uM compound; pH 7.5; competes with DNA; off-target control

Sequence of SOX2 (P48431 whole entry): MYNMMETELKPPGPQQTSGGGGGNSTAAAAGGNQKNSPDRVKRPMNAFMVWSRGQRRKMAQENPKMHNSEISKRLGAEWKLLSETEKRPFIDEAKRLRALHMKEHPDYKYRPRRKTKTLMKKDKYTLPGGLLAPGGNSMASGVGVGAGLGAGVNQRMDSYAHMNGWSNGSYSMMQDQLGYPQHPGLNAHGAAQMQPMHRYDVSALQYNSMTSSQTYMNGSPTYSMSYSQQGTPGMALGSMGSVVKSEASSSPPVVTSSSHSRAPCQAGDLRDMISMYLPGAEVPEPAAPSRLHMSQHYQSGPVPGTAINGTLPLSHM

competitive EMSA (loss of shifted biotin-DNA probe): SOX2 was competed by Compound A only
Structure (SMILES): Cc1cc2nc(-c3cccc(NC(=O)c4ccc(C)c([N+](=O)[O-])c4)c3)oc2cc1C [A, Compound A]
